Read-outs that look alike come from different tables or passages of the source.
Key:
[1] = target: human recombinant 5-HT1A receptor (Homo sapiens (Human), UniProt P08908); test: 5-HT1A receptor agonism activity test (inhibition of cAMP production, LANCE cAMP 384 Kit); assay type: cell-based; conditions: HEK293 cells expressing human recombinant 5-HT1A receptor; test concentration 0.1 nM-10000 nM; read-out: 5-HT1A receptor agonism (EC50, mol/L)
Text: Pharmacological Test 1) 5-HT1A Receptor Agonism Activity Test

[2] = tested on: PCP-induced hyperactivity in mice; test: In vivo efficacy test (PCP-induced high locomotor activity in mice); conditions: male ICR mice, oral administration 45 minutes before PCP 7 mg/kg i.p.; dose significantly reducing PCP-induced hyperactivity vs model group
Procedure: 5) In Vivo Efficacy Test (PCP-Induced High Locomotor Activity in Mice)
PCP solution was prepared in a suitable concentration for 7 mg/kg dosage with saline. […] Male ICR mice (18-22 g) were used as test animals. All the test mice were randomly divided into vehicle control group, model control group, positive control group, and treatment group(8 mice per group). Mice of each group were orally administered test compounds or vehicle. After 45 minutes PCP solution was administered (7 mg/kg) through intraperitoneal injection. The mice track after drug or saline administration was recorded and analyzed by the spontaneous, open-field video analysis system. […] The mice track was recorded and analyzed by the spontaneous, open-field video analysis system. The total distance in each group was calculate and expressed as mean+SD and statistical evaluation was performed by one way ANOVA.

[3] = target: human recombinant 5-HT2A receptor (Homo sapiens (Human), UniProt P28223); test: 5-HT2A receptor antagonism activity test (FLIPR Calcium 5 Assay Kit); conditions: read-out: 5-HT2A receptor antagonism (IC50, mol/L)
Sequence of human recombinant 5-HT2A receptor (P28223 whole entry): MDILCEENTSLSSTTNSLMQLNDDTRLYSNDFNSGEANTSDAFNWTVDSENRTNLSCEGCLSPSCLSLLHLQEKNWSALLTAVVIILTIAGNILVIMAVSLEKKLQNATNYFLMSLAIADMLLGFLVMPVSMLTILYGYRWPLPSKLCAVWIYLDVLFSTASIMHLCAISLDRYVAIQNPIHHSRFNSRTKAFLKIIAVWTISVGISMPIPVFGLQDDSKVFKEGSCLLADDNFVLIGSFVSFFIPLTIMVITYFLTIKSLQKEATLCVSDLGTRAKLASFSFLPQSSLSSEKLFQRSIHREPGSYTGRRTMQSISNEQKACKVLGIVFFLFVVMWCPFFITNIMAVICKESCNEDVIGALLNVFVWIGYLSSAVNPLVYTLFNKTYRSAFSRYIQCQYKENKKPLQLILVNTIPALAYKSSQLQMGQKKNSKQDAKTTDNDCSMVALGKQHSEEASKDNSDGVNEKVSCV

[4] = target: human recombinant D2 receptor (Homo sapiens (Human), UniProt P14416); test: D2 receptor antagonism activity test (inhibition of dopamine-induced decrease of cAMP production, LANCE cAMP 384 Kit); conditions: read-out: D2 receptor antagonism (IC50, mol/L), HEK293 cells expressing human recombinant D2 receptor, 0.1 nM-10000 nM
Sequence of human recombinant D2 receptor (P14416 whole entry): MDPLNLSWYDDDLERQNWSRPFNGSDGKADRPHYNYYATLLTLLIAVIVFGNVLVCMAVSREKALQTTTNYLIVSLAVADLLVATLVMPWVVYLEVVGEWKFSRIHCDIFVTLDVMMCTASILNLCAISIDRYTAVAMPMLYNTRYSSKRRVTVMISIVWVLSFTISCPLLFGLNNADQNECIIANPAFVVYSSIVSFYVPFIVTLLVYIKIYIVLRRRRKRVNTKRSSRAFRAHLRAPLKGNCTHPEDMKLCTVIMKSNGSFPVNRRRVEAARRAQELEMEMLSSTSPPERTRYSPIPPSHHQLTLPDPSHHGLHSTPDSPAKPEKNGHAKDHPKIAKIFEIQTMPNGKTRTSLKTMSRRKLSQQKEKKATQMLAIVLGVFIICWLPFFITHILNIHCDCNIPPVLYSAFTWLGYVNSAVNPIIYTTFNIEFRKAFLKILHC

[5] = CHO-K1 cells expressing human recombinant 5-HT2A receptor, α-methyl-5-hydroxytryptamine 300 nM, 0.1 nM-10000 nM

Sequence of human recombinant 5-HT1A receptor (P08908 whole entry): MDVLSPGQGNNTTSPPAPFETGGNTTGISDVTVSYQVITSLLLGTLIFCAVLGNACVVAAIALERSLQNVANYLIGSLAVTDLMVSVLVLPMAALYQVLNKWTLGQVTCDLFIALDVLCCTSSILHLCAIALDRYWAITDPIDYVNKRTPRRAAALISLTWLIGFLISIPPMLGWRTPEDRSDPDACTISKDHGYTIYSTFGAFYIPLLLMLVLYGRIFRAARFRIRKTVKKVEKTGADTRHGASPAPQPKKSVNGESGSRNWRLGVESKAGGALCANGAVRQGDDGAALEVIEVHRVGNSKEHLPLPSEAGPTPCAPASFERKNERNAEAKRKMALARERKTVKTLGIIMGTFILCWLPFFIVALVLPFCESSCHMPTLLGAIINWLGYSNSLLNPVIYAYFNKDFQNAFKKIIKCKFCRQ

O=C1CCc2ccc(CCN3CCN(c4cccc5sccc45)CC3)cc2N1 [Compound of example 19, 7-(2-(4-(benzo[b]thiophen-4-yl)piperazin-1-yl)ethyl)-3,4-dihydroquinolin-2(1H)-one]
EC50 [1]: 0.926 nM | Effective dose [2]: 0.1 mg/kg | IC50 [3, 5]: 169 nM | IC50 [4]: 8.62 nM

O=C1CSc2ccc(CCN3CCN(c4cccc5sccc45)CC3)cc2N1 [Compound of example 31, 6-(2-(4-(benzo[b]thiophen-4-yl)piperazin-1-yl)ethyl)-2H-benzo[b][1,4]thiazin-3(4H)-one]
EC50 [1]: 0.68 nM | Effective dose [2]: 1 mg/kg | IC50 [3, 5]: 52.2 nM | IC50 [4]: 92.7 nM

O=c1ccc2ccc(CCCCN3CCN(c4cccc5sccc45)CC3)cc2[nH]1 [Compound of example 33, 7-(4-(4-(benzo[b]thiophen-4-yl)piperazin-1-yl)butyl)quinolin-2(1H)-one]
EC50 [1]: 2.24 nM | Effective dose [2]: 1 mg/kg | IC50 [3, 5]: 244 nM | IC50 [4]: 35.6 nM

Cl.O=C1CCc2ccc(CCN3CCN(c4cccc5sc(F)cc45)CC3)cc2N1 [Compound of example 64, 7-(2-(4-(2-fluorobenzo[b]thiophen-4-yl)piperazin-1-yl)ethyl)-3,4-dihydroquinolin-2(1H)-onehydrochloride]
EC50 [1]: 31.6 nM | Effective dose [2]: 1 mg/kg | IC50 [3, 5]: 257 nM | IC50 [4]: 2.94 nM

O=C1CCc2cc(CCN3CCN(c4cccc5sc(F)cc45)CC3)ccc2N1 [Compound of example 65, 6-(2-(4-(2-fluorobenzo[b]thiophen-4-yl)piperazin-1-yl)ethyl)-3,4-dihydroquinolin-2(1H)-one]
EC50 [1]: 1.25 nM | Effective dose [2]: 3 mg/kg | IC50 [3, 5]: 40.3 nM | IC50 [4]: 7.76 nM

O=C1COc2c(F)cc(CCCCN3CCN(c4cccc5sccc45)CC3)cc2N1 [Compound of example 72, 6-(4-(4-(benzo[b]thiophen-4-yl)piperazin-1-yl)butyl)-8-fluoro-2H-benzo[b][1,4]oxazin-3(4H)-one]
EC50 [1]: 2.53 nM | Effective dose [2]: 3 mg/kg | IC50 [3, 5]: 951 nM | IC50 [4]: 13.2 nM

O=C1CCc2cc(CCCCN3CCN(c4cccc5sc(F)cc45)CC3)ccc2N1 [Compound of example 74, 6-(4-(4-(2-fluorobenzo[b]thiophen-4-yl)piperazin-1-yl)butyl)-3,4-dihydroquinolin-2(1H)-one]
EC50 [1]: 20.8 nM | Effective dose [2]: 3 mg/kg | IC50 [3, 5]: 874 nM | IC50 [4]: 1.06 nM

O=c1[nH]c2ccc(CCN3CCN(c4cccc5sc(F)cc45)CC3)cc2[nH]1 [Compound of example 77, 5-(2-(4-(2-fluorobenzo[b]thiophen-4-yl)piperazin-1-yl)ethyl)-1H-benzo[d]imidazol-2(3H)-one]
EC50 [1]: 4.8 nM | Effective dose [2]: 3 mg/kg | IC50 [3, 5]: 157 nM | IC50 [4]: 6.91 nM

O=C1COc2ccc(CCN3CCN(c4cc(F)cc5sccc45)CC3)cc2N1 [Compound of example 78, 6-(2-(4-(6-fluorobenzo[b]thiophen-4-yl)piperazin-1-yl)ethyl)-2H-benzo[b][1,4]oxazin-3(4H)-one]
EC50 [1]: 0.599 nM | Effective dose [2]: 3 mg/kg | IC50 [3, 5]: 328 nM | IC50 [4]: 45.6 nM

O=C1Cc2cc(CCN3CCN(c4cccc5sc(F)cc45)CC3)ccc2N1 [Compound of example 79, 5-(2-(4-(2-fluorobenzo[b]thiophen-4-yl)piperazin-1-yl)ethyl)indolin-2-one]
EC50 [1]: 0.77 nM | Effective dose [2]: 1 mg/kg | IC50 [3]: 16.8 nM | IC50 [4]: 3.87 nM

Cc1nc2ccc(CCN3CCN(c4cccc5sccc45)CC3)cc2c(=O)[nH]1 [Compound of example 80, 6-(2-(4-(benzo[b]thiophen-4-yl)piperazin-1-yl)ethyl)-2-methylquinazolin-4(3H)-one]
EC50 [1]: 1.74 nM | Effective dose [2]: 1 mg/kg | IC50 [3, 5]: 11.9 nM | IC50 [4]: 25.1 nM

Cl.O=S1(=O)NCCc2ccc(CCN3CCN(c4cccc5sccc45)CC3)cc21 [Compound of example 81, 7-(2-(4-(benzo[b]thiophen-4-yl)piperazin-1-yl)ethyl)-1,1-dioxide-3,4-dihydro-2H-benzo[e][1,2]thiazine hydrochloride]
EC50 [1]: 1.05 nM | Effective dose [2]: 1 mg/kg | IC50 [3, 5]: 1.67 nM | IC50 [4]: 14.3 nM

O=C1Cc2cc(CCN3CCC(c4cccc5sccc45)CC3)ccc2N1 [Compound of example 82, 5-(2-(4-(benzo[b]thiophen-4-yl)piperidin-1-yl)ethyl)indolin-2-one]
EC50 [1]: 2.8 nM | Effective dose [2]: 1 mg/kg | IC50 [3, 5]: 11.5 nM | IC50 [4]: 10.9 nM

O=C1CCc2ccc(CCN3CCC(c4cccc5sccc45)CC3)cc2N1 [Compound of example 83, 7-(2-(4-(benzo[b]thiophen-4-yl)piperidin-1-yl)ethyl)-3,4-dihydroquinolin-2(1H)-one]
EC50 [1]: 4.91 nM | Effective dose [2]: 1 mg/kg | IC50 [3]: 25 nM | IC50 [4]: 10.4 nM

O=C1CCc2ccc(CCN3CCN(c4cc(F)cc5sccc45)CC3)cc2N1 [Compound of example 85, 7-(2-(4-(6-fluorobenzo[b]thiophen-4-yl)piperazin-1-yl)ethyl)-3,4-dihydroquinolin-2(1H)-one]
EC50 [1]: 1.38 nM | Effective dose [2]: 1 mg/kg | IC50 [3]: 77.5 nM | IC50 [4]: 5.32 nM

Cn1c(=O)[nH]c2cc(CCN3CCN(c4cccc5sccc45)CC3)ccc21 [Compound of example 88, 5-(2-(4-(benzo[b]thiophen-4-yl)piperazin-1-yl)ethyl)-1-methyl-1H-benzo[d]imidazol-2(3H)-one]
EC50 [1]: 6.31 nM | Effective dose [2]: 1 mg/kg | IC50 [3, 5]: 356 nM | IC50 [4]: 215 nM

COc1cc2c(N3CCN(CCc4ccc5c(c4)CCC(=O)N5)CC3)cccc2s1 [Compound of example 89, 6-(2-(4-(2-methoxybenzo[b]thiophen-4-yl)piperazin-1-yl)ethyl)-3,4-dihydroquinolin-2(1H)-one]
EC50 [1]: 1.29 nM | Effective dose [2]: 1 mg/kg | IC50 [3, 5]: 1050 nM | IC50 [4]: 8.06 nM

O=c1ccc2ccc(CCN3CCN(c4cc(F)cc5sccc45)CC3)cc2[nH]1 [Compound of example 102, 7-(2-(4-(6-fluorobenzo[b]thiophen-4-yl)piperazin-1-yl)ethyl)quinolin-2(1H)-one]
EC50 [1]: 3.29 nM | Effective dose [2]: 3 mg/kg | IC50 [3, 5]: 1900 nM | IC50 [4]: 106 nM

O=C1Cc2cc(CCCCN3CCN(c4cccc5sccc45)CC3)ccc2N1 [Compound of example 112, 5-(4-(4-(benzo[b]thiophen-4-yl)piperazin-1-yl)butyl)indolin-2-one]
EC50 [1]: 34.6 nM | Effective dose [2]: 1 mg/kg | IC50 [3, 5]: 257 nM | IC50 [4]: 28.1 nM

Cc1nc2n(c(=O)c1CCN1CCN(c3cccc4sc(F)cc34)CC1)CCCC2O.Cl (centres unmarked) [Compound of example 131, 3-(2-(4-(2-fluorobenzo[b]thiophen-4-yl)piperazin-1-yl)ethyl)-9-hydroxy-2-methyl-6,7,8,9-tetrahydro-4H-pyrido[1,2-a]pyrimidin-4-one hydrochloride]
EC50 [1]: 26 nM | Effective dose [2]: 3 mg/kg | IC50 [3]: 51.3 nM

O=C1COc2ccc(CCCCN3CCN(c4cccc5sccc45)CC3)cc2N1 [Compound of example 137, 6-(4-(4-(benzo[b]thiophen-4-yl)piperazin-1-yl)butyl)-2H-benzo[b][1,4]oxazin-3(4H)-one]
EC50 [1]: 1.81 nM | Effective dose [2]: 3 mg/kg | IC50 [3, 5]: 711 nM | IC50 [4]: 30.2 nM

— patent publication US10174011B2, “Heterocyclic compounds, process for preparation of the same and use thereof” (SHANGHAI INSTITUTE OF MATERIA MEDICA, CHINESE ACADEMY OF …, priority 2014, dated 2019)
